Measured values: patent US20140348819A1, “Methods of Treating Cancer” (Dana-Farber Cancer Institute, Inc., priority 2011, published 2014)

Columns and labels:
pERK/pAKT = assay: High-throughput western analysis of pERK/pAKT re-activation by RTK ligands under BRAFi/MEKi; format: cell-based, human; settings: under BRAFi (PLX4720); after 1 hour of cytokine treatment; six V600E BRAF melanoma cell lines
Procedure: FIG. 23B is a western blot showing the activation of AKT (phosphorylated AKT, S473) after 1 hour and 24 hours after treatment with HGF, IGF-1 (IGF), and Insulin (INS) in the presence of BRAFi (PLX4720, 2 μM). FIG. 23C is a western blot showing the effect of HGF (25 ng/mL) on MAPK and PI3K/AKT pathway activation (pRAF1, pMEK, pERK, pAKT and pMET) in melanoma cell lines after 24 hours of treatment with 2 μM BRAFi (PLX4720) or 2 μM MEKi (PD184352).
To understand why, of all the RTKs tested, only HGF could induce such a unique primary resistance phenotype, a high-throughput western analysis was used to test the ability of all 22 RTK ligands to re-activate pERK/pAKT under BRAFi (PLX4720) treatment in six V600E BRAF melanoma cell lines. […] However, whereas the activation of both ERK and AKT by HGF under PLX4720 treatment was long lasting, the activation of either ERK or AKT by the above cytokines was only transient and thus could not confer resistance to the melanoma cell lines.

[1] = system: six V600E BRAF melanoma cell lines; assay: Screening of recombinant RTK ligands for ability to confer resistance to BRAFi (PLX4720) or MEKi (PD184352) (Table 4); format: cell-based, human; parameters: ability of recombinant RTK ligand to confer resistance / ability of recombinant RTK ligand to confer resistance (screening value): scale not given here
How it was run: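 Resistance to BRAFi (PLX4720) or MEKi (PD184352) was tested in six V600E BRAF melanoma lines given one of 22 recombinant RTK ligands. For a subset of RTKs, activation was checked by high-throughput tyrosine kinase phosphorylation profiling and western blot.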

PDGF-BB: RTK ligand of PDGFRB
re-activation of pERK/pAKT (pERK/pAKT): reactivate only ERK | ability of recombinant RTK ligand to confer resistance ([1]; A2058, PD184352 - 1 uM, ligand 0.4 ng/ml): 1.07 | ability of recombinant RTK ligand to confer resistance ([1]; A2058, PD184352 - 1 uM, ligand 1.6 ng/ml): 0.98 | ability of recombinant RTK ligand to confer resistance ([1]; A2058, PD184352 - 1 uM, ligand 6.25 ng/ml): 1.10 | ability of recombinant RTK ligand to confer resistance ([1]; A2058, PD184352 - 1 uM, ligand 25 ng/ml): 1.09 | ability of recombinant RTK ligand to confer resistance ([1]; A2058, PD184352 - 1 uM, ligand 100 ng/ml): 1.02 | ability of recombinant RTK ligand to confer resistance ([1]; A2058, PLX4720 - 2 uM, ligand 0.4 ng/ml): 1.07 | ability of recombinant RTK ligand to confer resistance ([1]; A2058, PLX4720 - 2 uM, ligand 1.6 ng/ml): 0.98 | ability of recombinant RTK ligand to confer resistance ([1]; A2058, PLX4720 - 2 uM, ligand 6.25 ng/ml): 1.07 | ability of recombinant RTK ligand to confer resistance ([1]; A2058, PLX4720 - 2 uM, ligand 25 ng/ml): 1.12 | ability of recombinant RTK ligand to confer resistance ([1]; A2058, PLX4720 - 2 uM, ligand 100 ng/ml): 1.07 | ability of recombinant RTK ligand to confer resistance ([1]; C32, PD184352 - 1 uM, ligand 0.4 ng/ml): 1.06 | ability of recombinant RTK ligand to confer resistance ([1]; C32, PD184352 - 1 uM, ligand 1.6 ng/ml): 0.97 | ability of recombinant RTK ligand to confer resistance ([1]; C32, PD184352 - 1 uM, ligand 6.25 ng/ml): 1.08 | ability of recombinant RTK ligand to confer resistance ([1]; C32, PD184352 - 1 uM, ligand 25 ng/ml): 1.10 | ability of recombinant RTK ligand to confer resistance ([1]; C32, PD184352 - 1 uM, ligand 100 ng/ml): 0.96 | ability of recombinant RTK ligand to confer resistance ([1]; C32, PLX4720 - 2 uM, ligand 0.4 ng/ml): 0.96 | ability of recombinant RTK ligand to confer resistance ([1]; C32, PLX4720 - 2 uM, ligand 1.6 ng/ml): 0.97 | ability of recombinant RTK ligand to confer resistance ([1]; C32, PLX4720 - 2 uM, ligand 6.25 ng/ml): 1.04 | ability of recombinant RTK ligand to confer resistance ([1]; C32, PLX4720 - 2 uM, ligand 25 ng/ml): 0.97 | ability of recombinant RTK ligand to confer resistance ([1]; C32, PLX4720 - 2 uM, ligand 100 ng/ml): 0.89 | ability of recombinant RTK ligand to confer resistance ([1]; Colo 829, PD184352 - 1 uM, ligand 0.4 ng/ml): 1.04 | ability of recombinant RTK ligand to confer resistance ([1]; Colo 829, PD184352 - 1 uM, ligand 1.6 ng/ml): 1.06 | ability of recombinant RTK ligand to confer resistance ([1]; Colo 829, PD184352 - 1 uM, ligand 6.25 ng/ml): 1.10 | ability of recombinant RTK ligand to confer resistance ([1]; Colo 829, PD184352 - 1 uM, ligand 25 ng/ml): 1.09 | ability of recombinant RTK ligand to confer resistance ([1]; Colo 829, PD184352 - 1 uM, ligand 100 ng/ml): 0.98 | ability of recombinant RTK ligand to confer resistance ([1]; Colo 829, PLX4720 - 2 uM, ligand 0.4 ng/ml): 1.01 | ability of recombinant RTK ligand to confer resistance ([1]; Colo 829, PLX4720 - 2 uM, ligand 1.6 ng/ml): 1.03 | ability of recombinant RTK ligand to confer resistance ([1]; Colo 829, PLX4720 - 2 uM, ligand 6.25 ng/ml): 1.06 | ability of recombinant RTK ligand to confer resistance ([1]; Colo 829, PLX4720 - 2 uM, ligand 25 ng/ml): 1.06 | ability of recombinant RTK ligand to confer resistance ([1]; Colo 829, PLX4720 - 2 uM, ligand 100 ng/ml): 1.01 | ability of recombinant RTK ligand to confer resistance ([1]; G-361, PD184352 - 1 uM, ligand 0.4 ng/ml): 1.00 | ability of recombinant RTK ligand to confer resistance ([1]; G-361, PD184352 - 1 uM, ligand 1.6 ng/ml): 0.89 | ability of recombinant RTK ligand to confer resistance ([1]; G-361, PD184352 - 1 uM, ligand 6.25 ng/ml): 0.99 | ability of recombinant RTK ligand to confer resistance ([1]; G-361, PD184352 - 1 uM, ligand 25 ng/ml): 0.98 | ability of recombinant RTK ligand to confer resistance ([1]; G-361, PD184352 - 1 uM, ligand 100 ng/ml): 0.96 | ability of recombinant RTK ligand to confer resistance ([1]; G-361, PLX4720 - 2 uM, ligand 0.4 ng/ml): 0.93 | ability of recombinant RTK ligand to confer resistance ([1]; G-361, PLX4720 - 2 uM, ligand 1.6 ng/ml): 0.90 | ability of recombinant RTK ligand to confer resistance ([1]; G-361, PLX4720 - 2 uM, ligand 6.25 ng/ml): 0.98 | ability of recombinant RTK ligand to confer resistance ([1]; G-361, PLX4720 - 2 uM, ligand 25 ng/ml): 1.00 | ability of recombinant RTK ligand to confer resistance ([1]; G-361, PLX4720 - 2 uM, ligand 100 ng/ml): 1.00 | ability of recombinant RTK ligand to confer resistance ([1]; SK-MEL-5, PD184352 - 1 uM, ligand 0.4 ng/ml): 1.03 | ability of recombinant RTK ligand to confer resistance ([1]; SK-MEL-5, PD184352 - 1 uM, ligand 1.6 ng/ml): 1.08 | ability of recombinant RTK ligand to confer resistance ([1]; SK-MEL-5, PD184352 - 1 uM, ligand 6.25 ng/ml): 1.04 | ability of recombinant RTK ligand to confer resistance ([1]; SK-MEL-5, PD184352 - 1 uM, ligand 25 ng/ml): 1.15 | ability of recombinant RTK ligand to confer resistance ([1]; SK-MEL-5, PD184352 - 1 uM, ligand 100 ng/ml): 1.16 | ability of recombinant RTK ligand to confer resistance ([1]; SK-MEL-5, PLX4720 - 2 uM, ligand 0.4 ng/ml): 0.87 | ability of recombinant RTK ligand to confer resistance ([1]; SK-MEL-5, PLX4720 - 2 uM, ligand 1.6 ng/ml): 0.98 | ability of recombinant RTK ligand to confer resistance ([1]; SK-MEL-5, PLX4720 - 2 uM, ligand 6.25 ng/ml): 1.02 | ability of recombinant RTK ligand to confer resistance ([1]; SK-MEL-5, PLX4720 - 2 uM, ligand 25 ng/ml): 1.16 | ability of recombinant RTK ligand to confer resistance ([1]; SK-MEL-5, PLX4720 - 2 uM, ligand 100 ng/ml): 1.31 | ability of recombinant RTK ligand to confer resistance ([1]; SK-MEL-28, PD184352 - 1 uM, ligand 0.4 ng/ml): 1.10 | ability of recombinant RTK ligand to confer resistance ([1]; SK-MEL-28, PD184352 - 1 uM, ligand 1.6 ng/ml): 1.02 | ability of recombinant RTK ligand to confer resistance ([1]; SK-MEL-28, PD184352 - 1 uM, ligand 6.25 ng/ml): 1.05 | ability of recombinant RTK ligand to confer resistance ([1]; SK-MEL-28, PD184352 - 1 uM, ligand 25 ng/ml): 0.99 | ability of recombinant RTK ligand to confer resistance ([1]; SK-MEL-28, PD184352 - 1 uM, ligand 100 ng/ml): 1.03 | ability of recombinant RTK ligand to confer resistance ([1]; SK-MEL-28, PLX4720 - 2 uM, ligand 0.4 ng/ml): 1.03 | ability of recombinant RTK ligand to confer resistance ([1]; SK-MEL-28, PLX4720 - 2 uM, ligand 1.6 ng/ml): 1.10 | ability of recombinant RTK ligand to confer resistance ([1]; SK-MEL-28, PLX4720 - 2 uM, ligand 6.25 ng/ml): 1.16 | ability of recombinant RTK ligand to confer resistance ([1]; SK-MEL-28, PLX4720 - 2 uM, ligand 25 ng/ml): 10.5 | ability of recombinant RTK ligand to confer resistance ([1]; SK-MEL-28, PLX4720 - 2 uM, ligand 100 ng/ml): 1.13 | ability of RTK ligand to confer primary resistance ([1]; six V600E BRAF melanoma cell lines, BRAFi (PLX4720) or MEKi (PD184352)): not shown to induce primary resistance
